From patent publication US6309842A, “Use of modified tethers in screening compound libraries” (Glaxo Wellcome Inc., priority 1997, dated 2001)

Tests used:
Format in all cases: cell-based
STE2 receptor = target: T1, STE2 receptor (Saccharomyces cerevisiae, UniProt D6VTK4); assay: Bead tether modification by yeast acid phosphatase, FACScan of 3E7-coated beads; conditions: 500 nM alpha factor, beads exposed 18 hr, 200 nM AF12402
T1 construct: expressed in transfected cells; host or cells: yeast strain ARY84 (Δste2::ura3, plasmid pRS416(URA3)-STE2)
T1 sequence (D6VTK4 1-431): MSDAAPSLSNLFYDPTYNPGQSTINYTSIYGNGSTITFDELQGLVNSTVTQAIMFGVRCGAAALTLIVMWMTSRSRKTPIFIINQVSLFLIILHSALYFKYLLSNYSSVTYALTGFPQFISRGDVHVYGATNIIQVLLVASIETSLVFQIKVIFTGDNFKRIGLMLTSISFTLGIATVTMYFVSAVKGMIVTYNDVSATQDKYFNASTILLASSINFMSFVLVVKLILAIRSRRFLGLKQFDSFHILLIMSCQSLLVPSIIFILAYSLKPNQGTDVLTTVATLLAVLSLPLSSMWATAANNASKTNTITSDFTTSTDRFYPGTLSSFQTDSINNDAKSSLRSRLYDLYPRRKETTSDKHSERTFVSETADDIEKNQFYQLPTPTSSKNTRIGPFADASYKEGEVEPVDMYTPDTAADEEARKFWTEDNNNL
Excerpt: This system employs yeast ARI 84 reporter cells bearing an STE2 receptor and containing a reporter construct in which a pho3 gene is linked to a FUS1 promoter. Acid phosphatase expressed by the yeast is used to dephosphorylate the substrate phospho-YGGFL-linker-biotin. (SEQ ID NO:25) As a result of dephosphorylation, the substrate can bind to a 3E7 antibody tether. The biotinylated portion of modified tethers is stained using a PE- or alkaline-phosphatase-conjugated streptavidin. Complexes with stained tethers are sorted by FACS™.
ARY84 culture from a fresh, 4-10 day old patch was grown in 3 ml SC minimal media minus Trp, Ura, Leu, pH adjusted to 6.15 using MES buffer 200 mM final at @30C overnight in a tube rotator. At A600, the growing culture was diluted to 0.1 A600 in duplicate in pH 6.15 SC media minus Trp, Ura, Leu. One diluted culture was induced by addition of alpha factor to 500 nM final concentration. 0.1 ml of the appropriate diluted induced or uninduced culture was added to wells of a BSA-blocked 96-well microtitre plate. […]
A desired amount of monobeads (at about 1×10^7 beads/ml) was washed once in 0.5 ml methanol, and twice in 1 ml PBS, pH 7.5. […] The density of beads was determined and about 1×10^5 beads were added to each well (after washing with PBS 0.1% BSA to remove the azide). […]
Staining was analyzed by running the beads through a Becton Dickinson FACScan™ machine. […]

[1] = target: T2, yeast alpha factor receptor (STE2) (Saccharomyces cerevisiae, UniProt D6VTK4); assay: Secreted β-galactosidase reporter in yeast ARY 110 (FUS1 promoter); conditions: ARY110 culture supernatants
T2 construct: expressed in transfected cells; host or cells: yeast strain ARY 110 with plasmid pRS416-STE2
T2 sequence (D6VTK4 1-431): T1 sequence (D6VTK4 1-431)
Excerpt: A second expression system links the A. niger secreted β-galactosidasegene to the yeast mating pathway/FUS1 promoter induction system. Using the integrating beta-galactosidase encoding plasmid pCMGy69 in concert with the yeast alpha factor receptor (STE2) encoding plasmid, PRS416-STE2 (centomeric), a yeast strain designated ARY 110 was produced with the following genotype; (far1 his3 sst2 FUS1-HIS3 FUS1-sBeta-Gal STE2).

[2] = target: T3, yeast α-factor receptor (STE2) (Saccharomyces cerevisiae, UniProt D6VTK4); assay: ELISA of agonist-induced well marking by ARY84 (dephosphorylation of AF12402 tether, 3E7 detection); conditions: for Well-marking activity: selective conditions
T3 construct: expressed in transfected cells; host or cells: yeast strain ARY84 (Δste2::ura3, plasmid pRS416(URA3)-STE2)
T3 sequence (D6VTK4 1-431): T1 sequence (D6VTK4 1-431)
Method: A plastic 96-well immunoassay plate (Beckman #373660) was coated with 0.41 μM streptavidin for 1 hour at 37° C. After washing, it was blocked with 1×PBS, 1% bovine serum albumin (BSA) for 1 hr at 37° C. After washing, 100 nM of AF12402 ((H)-(Phospho-Y)[…](biotin)(OH)) (SEQ ID NO:7) in 1×PBS, 0.1% BSA was incubated on the plate overnight at 4° C. The wells were washed with 1×PBS and a yeast culture containing ARY84 at a density of OD600 =0.1 in defined medium was added to the plate. The following conditions were tested: +growth selection, no α-factor; +growth selection, +500 nM α-factor.
After addition of yeast the culture was either removed immediately (t=0; wells were filled with 1×PBS/ 0.1% BSA) or after 24 hr incubation at 30° C. At the end of the incubation, the wells were washed and developed using a standard protocol with 1 nM 3E7 antibody for the primary development (4° C., 1 hr) and 1/1000 diluted alkaline phosphatase conjugated goat anti-mouse antibody (Gibco) at 4° C. for 1 hr. Binding of antibodies was quantitated using a standard colorimetric alkaline-phosphatase reaction (see Cull et al., PNAS 89, 1865-1869 (1992)).

With α-factor the “FACScan shift of beads, induced vs not induced yeast” value (STE2 receptor) was 10 fold, the “beta-galactosidase activity in supernatants over non-induced levels” value [1] was “up to 79 fold” and the “Increase in OD405 compared to wells lacking α-factor” value ([2]; 24 hr growth of yeast in the wells, 0.5 µM) was 4 fold. The Well-marking activity ([2]; T = 0, 500 nM alpha factor) was 0.11 OD405 units/minute, the Well-marking activity ([2]; T = 0, 500 nM alpha factor, listed as alpha factor) was 0.113 OD405 units/minute and the Well-marking activity ([2]; T = 24 Hrs, 500 nM alpha factor) was 0.8 OD405 units/minute.
